Experimental data as given in patent US11654198B2, “Application of combination of polyethylene glycol and local anesthetic in non-narcotic analgesia” (JENKEM TECHNOLOGY CO., LTD. (TIANJIN), priority 2016, dated 2023).

How the values were obtained:
SD rats [1] = test: Motor block four-level score, rat plantar incision model (Example 31); type: in vivo; parameters: key to motor function score: 1 = normal paw movement to 4 = complete loss of movement with gait defect; settings: for motor function score: bupivacaine 8, conjugate 10/11/12 32/24/48 mg/kg
Procedure: (§1) After SD rats inhale anesthesia (isoflurane), an incision of about 1 cm in length from the proximal end of the pelma to the toe is made: after the skin and fascia are cut, the plantar muscle is picked up with an ophthalmic forceps and cut longitudinally (maintaining the starting and ending point and attachment of muscles); pressing is carried out for hemostasis, physiological saline and test drugs are injected into the muscles of animal's legs, and then the pain threshold detection is performed by the hot plate method. Within 24 hours after the model is successful, the rats develop significant hyperalgesia. Qualified rats are randomly divided into 5 groups, 6 rats in each group, which are labeled as groups G1, G2, G3, G4 and G5, respectively. The plantar subcutaneous injection method for administration is used, and the grouping information of the experimental animals is shown in Table 8.
Motor block (four-level score): The exercise condition of each group of rats is evaluated by the motor block four-level scoring method. The scoring criteria are: paws can be dorsiflexed, stretched, valgus and other normal exercises, scored by 1 point; paws can be dorsiflexed, bendable or after the adduction, although the paws can be stretched, the stretching ability is weakened, scored by 2 points; the paws can perform dorsiflexion, but no longer has the ability to stretch, scored by 3 points; the paws completely lose the ability of dorsiflexion, curling and stretching, and the rats produce a gait defect, scored by 4 points. The time point for measuring the motor block score is before administration, and 0.5 h, 1 h, 2 h, 4 h, 6 h, 8 h, 12 h, and 24 h after administration.

SD rats [2] = test: Sensory block, hot plate paw withdrawal time, non-anesthetic analgesic effect of PEG-bupivacaine conjugate (Example 30); type: in vivo, rat; settings: for hot plate paw withdrawal time: conjugate 10/11/12 at 32/24/48 mg/kg (as bupivacaine)
Procedure: Male Sprague-Dawley rats are used in the study, about 230-250 g when accepted, and acclimated for at least 7 days prior to the experiment. Two rats are raised in each cage and fed freely with feed and water. The environmental conditions of the breeding room are 23±2° C., and the relative humidity is 40% to 70%, alternating 12 hours of light and dark. […] The qualified rats are randomly divided into 4 groups, 4 rats in each group, which are labeled as groups G1, G2, G3, and G4, respectively. Administration by direct injection in the sciatic nerve is adopted, and with the rat's back facing up, the drug is injected around the right sciatic nerve trunk between the right hip and the right thigh.
(§2) Sensory block (hot plate paw withdrawal time): The sensory block of the rat is examined by a hot plate method, and the hot plate is heated to (56±1)° C., and one of the hind paws of the rat is placed on the hot plate. The other hind paw is in the laboratory room temperature condition, and the tested paw withdrawal time is observed and recorded. The average value of two to three times measured is recorded as a pain threshold. In order to avoid the damage of the experimental animal body, if the rat has no paw withdrawal in the hot plate experiment for more than 15 s, the rat should be removed from the hot plate, and the experimental result is recorded as 15 s. The time point for determining the paw withdrawal time of the hot plate is before administration, and 0.5 h, 1 h, 2 h, 4 h, 6 h, 8 h, 10 h, 12 h, and 24 h after administration.

SD rats [3] = test: Hot plate paw withdrawal time, rat plantar incision model (Example 31); type: in vivo
Procedure: as §1
as §2, with “the hot plate, the other hind” for “the hot plate. The other hind”, “s, the paws should be” for “s, the rat should be”, “8 h, 12 h,” for “8 h, 10 h, 12 h,”

SD rats [4] = test: Hot plate paw withdrawal time, rat sciatica model, intervertebral disc compression (SNL) (Example 32); type: in vivo
Description: Intervertebral disc compression (SNL): This model is a pathological form that simulates clinical disc herniation. The specific method is to remove the autogenous caudal intervertebral disc tissue (annulus fibrosus and nucleus pulposus) form the rats and place the caudal intervertebral disc tissue between the proximal nerve root of the L5 dorsal root ganglion and the lower vertebral body to directly compress the L5 nerve root, wherein damage to the L5 nerve root or dorsal root ganglion should be avoided during the operation. 3 to 15 days after the model is successful, rats develop significant hyperalgesia, so the administration time we chose is between 3 days and 15 days.
Qualified rats are randomly divided into 5 groups, 6 rats in each group, which are labeled as groups G1, G2, G3, G4 and G5, respectively. Administration by intramuscular injection around sciatic nerve is adopted, and the grouping information of the experimental animals is shown in Table 11.
as §2, with “the hot plate, the other hind” for “the hot plate. The other hind”, “s, the paws should be” for “s, the rat should be”, “determining the withdrawal time” for “determining the paw withdrawal time”, “8 h, 12 h,” for “8 h, 10 h, 12 h,”

[5] = conjugate 10/11/12 at 32/24/48 mg/kg
[6] = 0 h (after surgery, before administration), bupivacaine 8, conjugate 10/11/12 32/24/48 mg/kg
[7] = bupivacaine 8, conjugate 10/11/12 32/24/48 mg/kg

8-Arm-PEG-Bupivacaine, 20K [bupivacaine conjugate 12]
motor function score (SD rats [1]; 0 h (before administration)): 1 ± 0
motor function score (SD rats [1]; 0.5 h): 1 ± 0
motor function score (SD rats [1]; 1 h): 1 ± 0
motor function score (SD rats [1]; 2 h): 1 ± 0
motor function score (SD rats [1]; 4 h): 1 ± 0
motor function score (SD rats [1]; 6 h): 1 ± 0
motor function score (SD rats [1]; 8 h): 1 ± 0
motor function score (SD rats [1]; 12 h): 1 ± 0
motor function score (SD rats [1]; 24 h): 1 ± 0
effect on motor function of SD rats (SD rats [1]; [5]): does not affect the motor function
hot plate paw withdrawal time (SD rats [2]; 0.5 h after direct injection around sciatic nerve): 6.49 s
hot plate paw withdrawal time (SD rats [2]; 2 h after direct injection around sciatic nerve): 3.52 s
hot plate paw withdrawal time (SD rats [2]; 4 h after direct injection around sciatic nerve): 4.82 s
hot plate paw withdrawal time (SD rats [2]; 6 h after direct injection around sciatic nerve): 4.59 s
hot plate paw withdrawal time (SD rats [2]; 8 h after direct injection around sciatic nerve): 4.34 s
hot plate paw withdrawal time (SD rats [2]; 10 h after direct injection around sciatic nerve): 4.30 s
hot plate paw withdrawal time (SD rats [2]; 12 h after direct injection around sciatic nerve): 2.80 s
hot plate paw withdrawal time (SD rats [2]; 24 h after direct injection around sciatic nerve): 3.25 s
time after administration at which hot plate paw withdrawal time is significantly higher than vehicle group (SD rats [2]; conjugate 10/11/12 at 32/24/48 mg/kg, direct injection): ≤ 2 h
hot plate paw withdrawal time (SD rats [2]; l h after direct injection around sciatic nerve): 6.77 s
hot plate paw withdrawal time (SD rats [3]; [6]): 1.89 s
hot plate paw withdrawal time (SD rats [3]; 0.5 h after plantar subcutaneous injection, bupivacaine 8, conjugate 10/11/12 32/24/48 mg/kg): 8.13 s
hot plate paw withdrawal time (SD rats [3]; 1 h after plantar subcutaneous injection, bupivacaine 8, conjugate 10/11/12 32/24/48 mg/kg): 7.21 s
hot plate paw withdrawal time (SD rats [3]; 2 h after plantar subcutaneous injection, bupivacaine 8, conjugate 10/11/12 32/24/48 mg/kg): 6.12 s
hot plate paw withdrawal time (SD rats [3]; 4 h after plantar subcutaneous injection, bupivacaine 8, conjugate 10/11/12 32/24/48 mg/kg): 2.49 s
hot plate paw withdrawal time (SD rats [3]; 6 h after plantar subcutaneous injection, bupivacaine 8, conjugate 10/11/12 32/24/48 mg/kg): 2.34 s
hot plate paw withdrawal time (SD rats [3]; 8 h after plantar subcutaneous injection, bupivacaine 8, conjugate 10/11/12 32/24/48 mg/kg): 2.10 s
hot plate paw withdrawal time (SD rats [3]; 12 h after plantar subcutaneous injection, bupivacaine 8, conjugate 10/11/12 32/24/48 mg/kg): 1.92 s
hot plate paw withdrawal time (SD rats [3]; 24 h after plantar subcutaneous injection, bupivacaine 8, conjugate 10/11/12 32/24/48 mg/kg): 1.76 s
hot plate paw withdrawal time (SD rats [3]; base value before surgery, bupivacaine 8, conjugate 10/11/12 32/24/48 mg/kg (as bupivacaine)): 5.81 s
time after administration at which hot plate paw withdrawal time is significantly higher than vehicle group (SD rats [3]; [7]): ≤ 2 h
time the analgesic effect can reach (SD rats [3]; [5]): 2 h
hot plate paw withdrawal time (SD rats [4]; [6]): 1.89 s
hot plate paw withdrawal time (SD rats [4]; 0.5 h after intramuscular injection around sciatic nerve, bupivacaine 8, conjugate 10/11/12 32/24/48 mg/kg): 8.13 s
hot plate paw withdrawal time (SD rats [4]; 1 h after intramuscular injection around sciatic nerve, bupivacaine 8, conjugate 10/11/12 32/24/48 mg/kg): 7.21 s
hot plate paw withdrawal time (SD rats [4]; 2 h after intramuscular injection around sciatic nerve, bupivacaine 8, conjugate 10/11/12 32/24/48 mg/kg): 6.12 s
hot plate paw withdrawal time (SD rats [4]; 4 h after intramuscular injection around sciatic nerve, bupivacaine 8, conjugate 10/11/12 32/24/48 mg/kg): 2.98 s
hot plate paw withdrawal time (SD rats [4]; 6 h after intramuscular injection around sciatic nerve, bupivacaine 8, conjugate 10/11/12 32/24/48 mg/kg): 2.91 s
hot plate paw withdrawal time (SD rats [4]; 8 h after intramuscular injection around sciatic nerve, bupivacaine 8, conjugate 10/11/12 32/24/48 mg/kg): 2.18 s
hot plate paw withdrawal time (SD rats [4]; 12 h after intramuscular injection around sciatic nerve, bupivacaine 8, conjugate 10/11/12 32/24/48 mg/kg): 1.85 s
hot plate paw withdrawal time (SD rats [4]; 24 h after intramuscular injection around sciatic nerve, bupivacaine 8, conjugate 10/11/12 32/24/48 mg/kg): 2.56 s
hot plate paw withdrawal time (SD rats [4]; before surgery, bupivacaine 8, conjugate 10/11/12 32/24/48 mg/kg (as bupivacaine)): 5.51 s
time after administration at which hot plate paw withdrawal time is significantly higher than vehicle group (SD rats [4]; [7]): ≤ 2 h
time the analgesic effect can reach (SD rats [4]; [5]): 2 h
